Data as given in patent US20220071996A1, “ORAL FORMULATIONS OF BRANAPLAM” (NOVARTIS AG, priority 2018, published 2022).

Assays:
[1] = pH-dependent stability and compatibility with preservatives; assay type: physicochemical
[2] = measured pKas of branaplam; assay type: physicochemical; conditions: acid
[3] = system: infants with Type I Spinal Muscular Atrophy; assay: open-label first-in-human proof of concept study of oral branaplam; assay type: in vivo
Description: Clinical Trial: An Open-Label Multi-Part First-In-Human Proof of Concept Study of Oral Branaplam in Infants with Type I Spinal Muscular Atrophy. • Part 1: The aim of part one of this study was to determine the safety and tolerability of ascending weekly doses and to estimate the maximum tolerated dose (MTD) of oral/enteral branaplam in infants with Type 1 SMA. All patients had exactly 2 copies of the SMN2 gene. • In part one of the study, patients were dosed once weekly with branaplam. The branaplam doses were escalated in subsequent cohorts until MTD was determined or when PK results confirmed that the MTD could not be reached due to a potential pharmacokinetic exposure plateau at higher doses. A decision to dose escalate the next cohort was made after safety data had been collected for 14 days following the first dose. Patients completing 13 weeks of treatment were considered to have completed the study. The starting dose was 6 mg/m^2 (approximately 0.3125 mg/kg). Subsequent doses were 12 mg/m^2, 24 mg/m^2, 48 mg/m^2 and 60 mg/m^2 (approximately 0.625 mg/kg, 1.25 mg/kg, 2.5 mg/kg and 3.125 mg/kg, respectively). Each cohort had 2-3 patients. All doses are of branaplam in free form. 14 patients were enrolled in Part 1; 13 patients were exposed to branaplam. The duration of exposure ranged from 4-33 months, 7 patients remain in the study. Six of the 7 patients are receiving 60 mg/m^2, 1 patient is receiving 48 mg/m^2.
Preliminary Safety Results • AEs/SAEs: 455 AEs were reported in the 13 patients; the vast majority were attributed to the underlying disease. Seventy-nine SAEs occurred associated with 59 hospitalizations of which 39 of the 59 hospitalizations were for respiratory events or infections. • Deaths: A total of five patients have died, all from ventilatory failure due to their underlying disease.
Part 2 of the study will enroll patients into 2 cohorts: cohort 1 at a 0.625 mg/kg dose and cohort 2 at a 2.5 mg/kg dose. The selected dose levels of 0.625 mg/kg and 2.5 mg/kg are based on all safety data from Part 1, as well as, all data from chronic juvenile toxicity studies available at the time of initiation of Part 2. Six to 10 patients will be enrolled in cohorts 1 and 2. A total of a minimum of 12 and maximum of 20 patients will be enrolled and treated for 52 weeks. • Starting dose: The dose of 0.625 mg/kg (corresponding to 12 mg/m^2) is chosen as a starting dose in Part 2 based on safety and preliminary efficacy data collected in Part 1 of the study. Indeed, following an USM treatment with branaplam continued but at a reduced dose of 6 mg/m^2 (0.3125 mg/kg) for all patients who had completed the initial 13 weeks of treatment. This dose was predicted to be efficacious based upon the preliminary clinical (CHOP INTEND) response of patients in Cohort 1. […] For that reason and also given the preliminary efficacy data collected in patients treated with branaplam at 12 mg/m^2 (0.625 mg/kg) it was decided to take this dose as a starting dose in Part 2. • Second dose: The dose of 2.5 mg/kg (corresponding to 48 mg/m^2) is selected as the second dose in Part 2 being 4-fold higher than the starting dose of 0.625 mg/kg (corresponding to 12 mg/m^2). The difference between 0.625 mg/kg and 2.5 mg/kg is considered to be sufficient to ensure appropriate separation in terms of systemic branaplam exposure and potentially also of efficacy endpoints.

CC1(C)CC(Oc2ccc(-c3ccc(-c4cn[nH]c4)cc3O)nn2)CC(C)(C)N1 [branaplam, 5-(1H-pyrazol-4-yl)-2-(6-((2,2,6,6-tetramethylpiperidin-4-yl)oxy)pyridazin-3-yl)phenol]
pH-dependent stability [1]: poor stability under pH 4 | compatibility with potassium sorbate ([1]; preservative potassium sorbate): incompatibility with potassium sorbate | pKa [2]: 11.5 | decrease of CHOP INTEND scores ([3]; 13 weeks of treatment): no significant decrease was observed in any patient | Deaths (patients) ([3]; all from ventilatory failure due to underlying disease): five | AEs reported ([3]; human, in vivo): 455 | hospitalizations associated with SAEs ([3]; human, in vivo): 59 | hospitalizations for respiratory events or infections ([3]; human, in vivo): 39 | Clinical status ([3]; in vivo): do not follow the normal disease course for Type 1 SMA patients | SAEs ([3]; in vivo): Seventy-nine | patients who reached a CHOP INTEND score of >36 ([3]; in vivo): Eight | patients without feeding support after more than one year of treatment ([3]; in vivo): six | patients without feeding support after more than two years of treatment ([3]; in vivo): five | safety events following dose reduction ([3]; in vivo): decrease of motor skills, generalized motor weakness and increased respiratory muscle weakness | treated patients without feeding support at around 8 months of age ([3]; in vivo): Ten | dose limiting toxicity ([3]; in vivo, po): No dose limiting toxicity was observed | Death or permanent ventilation endpoint ([3]; natural history median age 13.5 months): majority of treated patients have not met this endpoint | HINE Section 2: patients who achieved independent sitting ([3]; of the 11 patients evaluated): one | patients with progressive and substantial increase of CHOP INTEND scores ([3]; po, 2184 h): 7 | patients without any ventilatory support with BiPAP ([3]; treated for more than two years): Four
